Measurements taken from patent publication US20240400584A1, “COMPOUNDS AND METHODS FOR MODULATING SPLICING” (REMIX THERAPEUTICS INC., priority 2021, published 2024).

Key:
HTT [1] = test: RT-qPCR splicing assay, HTT AJ/CJ mRNA; type: cell-based, human; conditions: Homo sapiens, 24 h, A673 or K562 cells; for IC50: decrease in canonical junction mRNA; for AC50: increase in alternative junction mRNA
Procedure, shortened: (§1)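 HTT and MYB canonical (CJ) and alternative-exon (AJ) junction transcripts quantified by one-step RT-qPCR from lysates of A673 or K562 cells treated 24 h with 11-point 3-fold dilutions (top 10 uM, ≤0.25% DMSO). Ct normalized to GAPDH, GUSB or PPIA and DMSO control (2^−ΔΔCt), expressed as % response.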

MYB [2] = test: RT-qPCR splicing assay, MYB AJ/CJ mRNA; type: cell-based; conditions: Homo sapiens, A673 or K562 cells, 24 hours; for IC50: decrease in canonical junction mRNA; for AC50: increase in alternative junction mRNA
Procedure, shortened: as §1

HTT [3] = test: Gene panel canonical junction qPCR assay, HTT CJ mRNA (Table 7); type: cell-based, human; conditions: Homo sapiens, read-out: HTT CJ mRNA decrease IC50
Procedure, shortened: (§2)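 Canonical-junction transcript decrease reported as IC50 from a 4-parameter logistic fit of percentage response, derived from 2^(−ΔΔCt) versus housekeeper (GAPDH/GUSB/PPIA) and DMSO control using preset ΔCt windows. Readout by cDNA synthesis and qPCR with exon-junction-overlapping probesets in compound-treated K562 or A673 cells.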

SMN2 = test: Gene panel canonical junction qPCR assay, SMN2 CJ mRNA (Table 7); type: cell-based; conditions: Homo sapiens, read-out: SMN2 CJ mRNA decrease IC50
Procedure, shortened: as §2

MYB [4] = test: Gene panel canonical junction qPCR assay, MYB CJ mRNA (Table 7); type: cell-based; conditions: Homo sapiens, read-out: MYB CJ mRNA decrease IC50
Procedure, shortened: as §2

Target C = test: Gene panel canonical junction qPCR assay, Target C CJ mRNA (Table 7); type: cell-based, human; conditions: Homo sapiens, read-out: Target C CJ mRNA decrease IC50
Procedure, shortened: as §2

| Structure (SMILES) | IC50 (HTT [1]) [nM] | AC50 (HTT [1]) [nM] | IC50 (MYB [2]) [nM] | AC50 (MYB [2]) [nM] | IC50 (HTT [3]) [nM] | IC50 (SMN2) [nM] | IC50 (MYB [4]) [nM] | IC50 (Target C) [nM] |
| --- | --- | --- | --- | --- | --- | --- | --- | --- |
| CN(c1ccc2c(n1)OCc1cc(-c3cn[nH]c3)c(F)cc1-2)C1CC(C)(C)NC(C)(C)C1 [Compound 233, 9-fluoro-N-methyl-8-(1H-pyrazol-4-yl)-N-(2,2,6,6-tetramethylpiperidin-4-yl)-6H-isochromeno[3,4-b]pyridin-3-amine] | < 100 | 100 to 1000 | 100 to 1000 | 1000 to 10000 | < 100 | < 100 | 100 to 1000 | 100 to 1000 |
| CC1(C)CC(Oc2ccc3c(n2)OCc2cc(-c4cn[nH]c4)c(F)cc2-3)CC(C)(C)N1 [Compound 234] | < 100 | < 100 | 100 to 1000 | 100 to 1000 | < 100 | < 100 | 100 to 1000 | 100 to 1000 |
| FC1(F)CC2CC(Oc3ccc4c(n3)OCc3cc(-n5nccn5)ccc3-4)CC1N2 (stereo not shown) [Compound 235, 6,6-difluoro-3-{[8-(1,2,3-triazol-2-yl)-6H-isochromeno[3,4-b]pyridin-3-yl]oxy}-8-azabicyclo[3.2.1]octane] | > 10000 | > 10000 | > 10000 | > 10000 | > 10000 | > 10000 | > 10000 | 1000 to 10000 |
| Fc1cc2c(cc1-c1cn[nH]c1)COc1nc(O[C@@H]3C[C@H]4CC(F)(F)[C@@H](C3)N4)ccc1-2 [Compound 236] | < 100 | < 100 | 100 to 1000 | < 100 | < 100 | < 100 | 100 to 1000 | 100 to 1000 |
| FC1(F)CC2CC(Nc3ccc4c(n3)OCc3cc(-n5nccn5)ccc3-4)CC1N2 (stereo not shown) [Compound 238, 6,6-difluoro-N-[8-(1,2,3-triazol-2-yl)-6H-isochromeno[3,4-b]pyridin-3-yl]-8-azabicyclo[3.2.1]octan-3-amine] | 100 to 1000 | 1000 to 10000 | 1000 to 10000 | 1000 to 10000 | 100 to 1000 | 1000 to 10000 | 1000 to 10000 | 1000 to 10000 |
| CN(c1ccc2c(n1)OCc1cc(-n3nccn3)ccc1-2)C1CC2CC(F)(F)C(C1)N2 (stereo not shown) [Compound 239, 6,6-difluoro-N-methyl-N-[8-(1,2,3-triazol-2-yl)-6H-isochromeno[3,4-b]pyridin-3-yl]-8-azabicyclo[3.2.1]octan-3-amine] | 100 to 1000 | 1000 to 10000 | 1000 to 10000 | 1000 to 10000 | 100 to 1000 | 100 to 1000 | 1000 to 10000 | 1000 to 10000 |
| COc1cc(-c2ccc3c(c2)COc2nc(NC4CC5CC(F)(F)C(C4)N5)ccc2-3)cnn1 (stereo not shown) [Compound 240, 6,6-difluoro-N-[8-(6-methoxypyridazin-4-yl)-6H-isochromeno[3,4-b]pyridin-3-yl]-8-azabicyclo[3.2.1]octan-3-amine] | < 100 | 100 to 1000 | 1000 to 10000 | 1000 to 10000 | < 100 | 100 to 1000 | 1000 to 10000 | 100 to 1000 |
| FC1(F)CC2CC(Nc3ccc4c(n3)OCc3cc(-c5cn[nH]c5)ccc3-4)CC1N2 (stereo not shown) [Compound 241, 6,6-difluoro-N-[8-(1H-pyrazol-4-yl)-6H-isochromeno[3,4-b]pyridin-3-yl]-8-azabicyclo[3.2.1]octan-3-amine] | 1000 to 10000 | 1000 to 10000 | 1000 to 10000 | 1000 to 10000 | 1000 to 10000 | 1000 to 10000 | 1000 to 10000 | 1000 to 10000 |
| COc1cc(-c2cc3c(cc2F)-c2ccc(N(C)[C@@H]4C[C@H]5CC[C@@H](C4)N5)nc2OC3)cnn1 [Compound 242] | < 100 | < 100 | 1000 to 10000 | < 100 | < 100 | < 100 | 100 to 1000 | < 100 |
| COc1cc(-c2cc3c(cc2F)-c2ccc(O[C@@H]4C[C@H]5CC[C@@H](C4)N5)nc2OC3)cnn1 [Compound 243] | < 100 | < 100 | 100 to 1000 | 100 to 1000 | < 100 | < 100 | 100 to 1000 | 100 to 1000 |
| COc1cc(-c2cc3c(cc2F)-c2ccc(OC4CC(C)(C)NC(C)(C)C4)nc2OC3)cnn1 [Compound 244] | 100 to 1000 | < 100 | 100 to 1000 | 100 to 1000 | 100 to 1000 | 100 to 1000 | 100 to 1000 | 100 to 1000 |
| COc1cc(-c2ccc3c(c2F)COc2nc(N(C)[C@@H]4C[C@H]5CC[C@@H](C4)N5)ccc2-3)cnn1 [Compound 245, N-((1R,3s,5S)-8-azabicyclo[3.2.1]octan-3-yl)-7-fluoro-8-(6-methoxypyridazin-4-yl)-N-methyl-6H-isoch-romeno[3,4-b]pyridin-3-amine] | < 100 | < 100 | < 100 | < 100 | < 100 | < 100 | < 100 | < 100 |
| COc1cc(-c2ccc3c(c2)COc2nc(N(C)[C@H]4C[C@H]5COC[C@@H](C4)N5)ccc2-3)cnn1 [Compound 246] | > 10000 | > 10000 | > 10000 | 1000 to 10000 | > 10000 | 1000 to 10000 | > 10000 | > 10000 |
| COc1cc(-c2ccc3c(c2)COc2nc(N(C)[C@H]4C[C@@H]5CC(F)(F)[C@H](C4)N5)ccc2-3)cnn1 [Compound 247, (1R,3S,5S)-6,6-difluoro-N-[8-(6-methoxypyridazin-4-yl)-6H-isochromeno[3,4-b]pyridin-3-yl]-N-methyl-8-azabicyclo[3.2.1]octan-3-amine] | < 100 | < 100 | 100 to 1000 | > 10000 | < 100 | < 100 | 100 to 1000 | 100 to 1000 |
| CN(c1ccc2c(n1)OCc1cc(-c3cn[nH]c3)ccc1-2)C1CC2CC(F)(F)C(C1)N2 (stereo not shown) [Compound 248, 6,6-difluoro-N-methyl-N-[8-(1H-pyrazol-4-yl)-6H-isochromeno[3,4-b]pyridin-3-yl]-8-azabicyclo[3.2.1]octan-3-amine] | 100 to 1000 | 100 to 1000 | 1000 to 10000 | 1000 to 10000 | 100 to 1000 | 100 to 1000 | 1000 to 10000 | 1000 to 10000 |
| c1cnn(-c2ccc3c(c2)COc2nc(N4CCC(NC5CC5)C4)ccc2-3)n1 (stereo not shown) [Compound 249, N-cyclopropyl-1-[8-(1,2,3-triazol-2-yl)-6H-isochromeno[3,4-b]pyridin-3-yl]pyrrolidin-3-amine] | 1000 to 10000 | 1000 to 10000 | > 10000 | > 10000 | 1000 to 10000 | 100 to 1000 | > 10000 | > 10000 |
| CC(C)(C)NC1CCN(c2ccc3c(n2)OCc2cc(-n4nccn4)ccc2-3)C1 (stereo not shown) [Compound 250, N-tert-butyl-1-[8-(1,2,3-triazol-2-yl)-6H-isochromeno[3,4-b]pyridin-3-yl]pyrrolidin-3-amine 2,2,2-trifluoroacetate] | 1000 to 10000 | 100 to 1000 | 1000 to 10000 | 1000 to 10000 | 1000 to 10000 | 100 to 1000 | 1000 to 10000 | 1000 to 10000 |
| COc1cc(-c2ccc3c(c2)COc2nc(N4CCC(NC(C)(C)C)C4)ccc2-3)cnn1 (stereo not shown) [Compound 251, N-tert-butyl-1-[8-(6-methoxypyridazin-4-yl)-6H-isochromeno[3,4-b]pyridin-3-yl]pyrrolidin-3-amine] | < 100 | < 100 | 100 to 1000 | 100 to 1000 | < 100 | < 100 | 100 to 1000 | < 100 |
| CC1(NC2CCN(c3ccc4c(n3)OCc3cc(-n5nccn5)ccc3-4)C2)CC1 (stereo not shown) [Compound 252, N-(1-methylcyclopropyl)-1-[8-(1,2,3-triazol-2-yl)-6H-isochromeno[3,4-b]pyridin-3-yl]pyrrolidin-3-amine] | 100 to 1000 | 1000 to 10000 | 1000 to 10000 | 1000 to 10000 | 100 to 1000 | 100 to 1000 | 1000 to 10000 | 1000 to 10000 |
| CC1(NC2CCN(c3ccc4c(n3)OCc3cc(-c5cn[nH]c5)ccc3-4)C2)CC1 (stereo not shown) [Compound 253, N-(1-methylcyclopropyl)-1-[8-(1H-pyrazol-4-yl)-6H-isochromeno[3,4-b]pyridin-3-yl]pyrrolidin-3-amine] | 100 to 1000 | < 100 | 100 to 1000 | 100 to 1000 | 100 to 1000 | < 100 | 100 to 1000 | 100 to 1000 |
